# Experimental data as given in patent publication US8501715B2, “Oxidized lipids and uses thereof in the treatment of inflammatory diseases and disorders” (Vascular Biogenics Ltd., priority 2003, dated 2013).
# Columns and labels:
# Apo-E KO mice [1] = experiment: Assessment of atherosclerosis: lesion area in the aortic sinus; format: in vivo, mouse
# IL12p40 = experiment: p40 production by activated BMDC's (ELISA); format: cell-based, mouse; details: BMDC's, 1 h pre-incubation, PGN 10 μg/ml, 24 hours; preliminary results
# IL-10 = experiment: RT-PCR cytokine expression in the aorta: IL-10; format: in vivo, mouse; details: oral 1 mg/mouse 5 times every other day, 8 weeks after final administration
# Protocol: (§1) The effect of ALLE, CI-201, its corresponding acetal derivatives Et-acetal and Me-acetal (Compounds IIa and IIb, FIG. 10) and oxLDL on cytokine expression in the target organ—the aorta—was evaluated using RT-PCR as described hereinabove. […] Oral administrations took place 5 times every other day.
# IFN-γ = experiment: RT-PCR cytokine expression in the aorta: IFN-γ; format: in vivo; details: oral 1 mg/mouse 5 times every other day, 8 weeks after final administration
# Protocol: as §1
# IL-12 = experiment: RT-PCR cytokine expression in the aorta: IL-12; format: in vivo; details: oral 1 mg/mouse 5 times every other day, 8 weeks after final administration
# Protocol: as §1
# Apo-E KO mice [2] = experiment: Aorta lesion (% from total area); format: in vivo; details: oral 1 mg/mouse, 5 feedings every other day every 4 weeks over 12 weeks; 24.5 week old mice; End
# Excerpt: Assessment of Atherosclerosis: Quantification of atherosclerotic fatty streak lesions was done by calculating the lesion size in the aortic sinus as previously described (Paigen et al. Quantitative assessment of atherosclerotic lesions in mice. Atherosclerosis 1987; 68: […]) and by calculating the lesion size in the aorta. Briefly, after perfusion with saline Tris EDTA, the heart and the aorta were removed from the animals and the peripheral fat cleaned carefully. The upper section of the heart was embedded in OCT medium (10.24% w/w polyvinyl alcohol; 4.26% w/w polyethylene glycol; 85.50 w/w nonreactive ingredients) and frozen. […] Sections were evaluated for fatty streak lesions after staining with oil-red O. Lesion areas per section were scored on a grid (Rubin et al. Inhibition of early atherogenesis in transgenic mice by human apoplipoprotein A-I. Nature 1991; 353: 265-267) by an observer counting unidentified, numbered specimens. […]
# Their effect on the triglyceride and cholesterol fractions of VLDL was also monitored by FPLC. […]
# (§2) Mice were bled prior to feeding (Time 0), after the 2nd set of feeding and at the conclusion of the experiment (End) for determination of lipid profile, lipid fractionation and plasma collection. Atherosclerosis was assessed as described above in the aorta sinus and aorta. […] Weight was recorded every 2 weeks throughout the experiment. […]
# [3] = FPLC analysis of triglyceride and cholesterol content of VLDL; format: in vivo; details: oral 1 mg/mouse, 3 sets over 12 weeks; measured 9 weeks from t=0; FPLC of pooled blood
# Protocol: (§3) 24.5 weeks old Apo-E KO mice were fed 1 mg/mouse L-ALLE (triangle) (n=11), D-ALLE (inverted triangle) (n=9) or POVPC (square) (n=10) every other day for 5 days, at 4 weeks intervals over a 12 weeks period. Control mice were fed an identical volume (0.2 ml) and regimen of PBS (circle) (n=10). Triglyceride content (Tg, mg/ml) was measured 9 weeks from t=0, by enzymatic colorimetric method in the VLDL fractions following separation of pooled blood samples on FPLC, as described in the materials and methods section that follows.
# as §3, with “Cholesterol” for “Triglyceride”, “(Cholesterol,” for “(Tg,”
# FPLC Analysis: Fast Protein Liquid Chromatography analysis of cholesterol and lipid content of lipoproteins was performed using Superose 6 HR 10/30 column (Amersham Pharmacia Biotech, Inc, Peapack, N.J.) on a FPLC system (Pharmacia LKB. FRAC-200, Pharmacia, Peapack, N.J.). A minimum sample volume of 300 μl (blood pooled from 3 mice was diluted 1:2 and filtered before loading) was required in the sampling vial for the automatic sampler to completely fill the 200 μl sample loop. Fractions 10-40 were collected, each fraction contained 0.5 ml. A 250 μl sample from each fraction was mixed with freshly prepared cholesterol reagent or triglyceride reagent respectively, incubated for 5 minutes at 37° C. and assayed spectrophotometrically at 500 nm.
# Their effect on the triglyceride and cholesterol fractions of VLDL was also monitored by FPLC. […] male, 24.5 week old Apo-E KO mice were divided into 5 groups. In group A (n=11) mice were fed with 1 mg/mouse L-ALLE suspended in 0.2 ml PBS, administered by gavage, as described above, every other day for 5 days. In group B (n=9) mice were fed with 1 mg/mouse D-ALLE suspended in 0.2 ml PBS, administered per os, as described above, every other day for 5 days. In group C (n=10) mice were fed with 1 mg/mouse POVPC suspended in 0.2 ml PBS, administered by gavage, as described above, every other day for 5 days. […]
# as §2
compound,measurement,setting,value
"C=CCCCCO[C@H](COCCCCCCCCCCCCCCCC)COP(=O)([O-])OCC[N+](C)(C)C [Compound V, 1-Hexadecyl-2-(5′-hexenyl)-sn-glycero-3-phosphocholine]",atherogenesis progression,"Apo-E KO mice [1]; oral 0.1 μg/dose, 3 monthly sets of 5 administrations",did not effect atherogenesis progression
same,Sinus Lesion,"Apo-E KO mice [1]; oral 0.1 μg/dose, 3 monthly sets of 5 administrations, 12 weeks, 23-26 weeks old mice, no statistical difference to PBS",238000 ± 32200 µm²
same,Sinus Lesion,"Apo-E KO mice [1]; oral 0.2 mg/mouse every other day for 5 days, 8 weeks after last administration",334622 ± 26100 μm^2
same,Sinus Lesion,"Apo-E KO mice [1]; oral 1 mg/mouse every other day for 5 days, 8 weeks after last administration",361166 ± 24068 μm^2
same,Sinus Lesion,"Apo-E KO mice [1]; oral 5 mg/mouse every other day for 5 days, 8 weeks after last administration",307291 ± 22689 μm^2
same,effect on atherogenesis,Apo-E KO mice [1]; oral 0.2-5 mg/mouse every other day for 5 days,no effect
"CCCCCCCCCCCCCCCCOC[C@H](COP(=O)([O-])OCC[N+](C)(C)C)OC(C)=O [PAF, 1-O-Hexadecyl-2-Acetoyl-sn-Glycero-3-Phosphocholine, reference compound]","p40 production / p40 inhibition, structure-function analysis",IL12p40,efficient in p40 inhibition
CCCCCCCCCCCCCCCCOCC(COP(=O)([O-])OCC[N+](C)(C)C)OCCCCC(=O)OC (stereo not shown) [methyl ester of CI-201],"p40 production / p40 inhibition, structure-function analysis",IL12p40,restored p40 production
CCCCCCCCCCCCCCCCOCC(CO)OCCCCC(=O)O (stereo not shown) [non phosphorylated metabolite of CI-201],"p40 production / p40 inhibition, structure-function analysis",IL12p40,restored p40 production
"CCCCCCCCCCCCCCCCOC[C@H](COP(=O)([O-])OCC[N+](C)(C)C)OC(=O)CCC [PAF2C, 1-O-Hexadecyl-2-O-Butyroyl-sn-Glycero-3-Phosphocholine, reference compound]","p40 production / p40 inhibition, structure-function analysis",IL12p40,efficient in p40 inhibition
"2,5′-Aldehyde Lecithin Ether [ALLE]",IL-10 expression in the aorta versus PBS,IL-10,elevated levels
same,protection from atherogenesis,Apo-E KO mice [1]; ALLE by both oral (1 mg/mouse) and nasal (10 μg/mouse) administrations,approximately 50%
same,protection from atherosclerotic lesion formation,Apo-E KO mice [1]; i.p. immunization with ALLE (mixture of D- and L-),> 50%
same,Lesion size,"Apo-E KO mice [1]; i.p. immunization x4 every 2 weeks (ALLE 150 μg/mouse coupled to PPD; PPD alone), 4.5 weeks post 4th immunization",101000 ± 8276 μm^2
same,Lesion size,"Apo-E KO mice [1]; nasal 10 μg/mouse L-ALLE every other day for 3 days, 8 weeks after last exposure",82708 ± 10986 μm^2
same,Lesion size,"Apo-E KO mice [1]; oral 10 μg/mouse L-ALLE+D-ALLE every other day for 5 days, 8 weeks after last feeding",103889 ± 14320 μm^2
same,Lesion size,"Apo-E KO mice [1]; oral 1 mg/mouse L-ALLE every other day for 5 days, 8 weeks after last feeding",76944 ± 17072 μm^2
same,Lesion size,"Apo-E KO mice [1]; oral 1 mg/mouse L-ALLE+D-ALLE every other day for 5 days, 8 weeks after last feeding",85278 ± 11633 μm^2
same,"atherogenesis in Apo-E KO mice, oral administration (summary of earlier examples)",Apo-E KO mice [1]; oral administration,substantially inhibited atherogenesis
same,protection from atherosclerosis,"Apo-E KO mice [1]; oral administration of ALLE, 10 μg-1 mg/mouse",> 50%
same,IFN-γ expression in the aorta versus PBS,IFN-γ,Reduced expression levels
same,IL-12 expression in the aorta versus PBS,IL-12,reduced levels
"CCCCCCCCCCCCCCCCOC[C@H](COP(=O)([O-])OCC[N+](C)(C)C)OCCCCC=O [D-ALLE, 1-hexadecyl-2-(5′-oxo-pentanyl)-sn-glycero-3-phosphocholine]",Aorta lesion (% from total area),Apo-E KO mice [2],4.5 % from total area
same,Sinus Lesion,"Apo-E KO mice [1]; oral 1 mg/mouse, 5 feedings every other day every 4 weeks over 12 weeks, 24.5 week old mice, End (12 weeks after first feeding)",245938 ± 20474 μm^2
same,protection from atheromatous progression,"Apo-E KO mice [1]; oral 1 mg/mouse, late stage, compared with lesion scores at 24.5 weeks",nearly complete protection
same,cholesterol content of VLDL,[3],reduction
same,triglyceride content of VLDL,[3],reduction
"CCCCCCCCCCCCCCCCOC[C@H](COP(=O)(O)OCCN)OCCCCC(=O)O [phosphoethanol amine, 1-O-Hexadecyl-2-(4′-carboxybutyl)-sn-Glycero-3-Phosphoethanolamine]","p40 production / p40 inhibition, structure-function analysis",IL12p40,did not alter the molecule's p40 inhibitory effect
